Reference: patent US20230339886A1 (University of Florida Research Foundation, Incorporated, priority 2020, published 2023)

Molecular target: T1, REV-ERBα LBD (human; residues 281-614 Δ324-422) (Homo sapiens, UniProt P20393, DEL324-422)
T1 construct: 6×Histag-REV-ERBα LBD (human; residues 281-614 Δ324-422); made in house; host or cells: Escherichia coli
Assay: TR-FRET corepressor interaction assay (REV-ERBα LBD, FITC-SMRT peptide)
Assay type: biochemical
Details: Table 2, read-out: REVERBα agonism (EC50 class, FRET assay)
In short: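 Compound serial dilutions (in DMSO, triplicate) incubated 2 h at 4 °C; Tb donor excited at 340 nm, emission read at 495 nm and FITC acceptor at 520 nm. TR-FRET ratio (520/495 nm) plotted against ligand concentration and fitted to a sigmoidal dose-response curve.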

T1 sequence (P20393 with tags, fused parts or gaps DEL324-422): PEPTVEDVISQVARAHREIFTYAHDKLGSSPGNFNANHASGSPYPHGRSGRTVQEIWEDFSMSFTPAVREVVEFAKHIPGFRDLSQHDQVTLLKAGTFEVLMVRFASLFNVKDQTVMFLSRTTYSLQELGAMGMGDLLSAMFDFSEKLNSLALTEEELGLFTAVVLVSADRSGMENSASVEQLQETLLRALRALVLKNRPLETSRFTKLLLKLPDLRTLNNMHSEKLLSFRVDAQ
T1 sequence (Q9Y618 2335-2356 partner limits assumed): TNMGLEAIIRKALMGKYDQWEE

SMILES | EC50
CN(C)S(=O)(=O)NCCc1cn(Cc2ccccc2F)c2cc(-c3ccncc3)ccc12 [Example 150, N-{2-[6-(pyridin-4-yl)-1-(2-fluorobenzyl)-1H-indol-3-yl]ethyl}-N,N-dimethylsulfuric diamide] | 500 to 3000 nM
CN(C)S(=O)(=O)NCCc1cn(C(=O)c2cc(Cl)cc(Cl)c2)c2cc(-c3ccncc3)ccc12 [Example 151, N′-{2-[6-(pyridin-4-yl)-1-(3,5-dichlorobenzoyl)-1H-indol-3-yl]ethyl}-N,N-dimethylsulfuric diamide] | > 3000 nM
CN(C)S(=O)(=O)NCCn1cc(CC(F)(F)F)c2cc(Cl)ccc21 [Example 152, N-{2-[5-chloro-3-(2,2,2-trifluoroethyl)-1H-indol-1-yl]ethyl}-N,N-dimethylsulfuric diamide] | 500 to 3000 nM
CN(C)S(=O)(=O)NCCn1cc(CC(F)(F)C(F)(F)F)c2cc(Cl)ccc21 [Example 153, N-{2-[5-chloro-3-(2,2,3,3,3-pentafluoropropyl)-1H-indol-1-yl]ethyl}-N,N-dimethylsulfuric diamide] | 500 to 3000 nM
CN(C)S(=O)(=O)NCCc1cn(Cc2ccccn2)c2cc(Br)ccc12 [Example 161, [(2-{6-bromo-1-[(pyridin-2-yl)methyl]-1H-indol-3-yl}ethyl)sulfamoyl]dimethylamine] | 500 to 3000 nM
CC(C)Cn1cc(CCNS(=O)(=O)N(C)C)c2cc(F)c(Br)cc21 [Example 168, ({2-[6-bromo-5-fluoro-1-(2-methylpropyl)-1H-indol-3-yl]ethyl}sulfamoyl)dimethylamine] | < 500 nM
Cc1cc2c(cc1F)c(CCNS(=O)(=O)N(C)C)cn2CC(C)C [Example 170, ({2-[5-fluoro-6-methyl-1-(2-methylpropyl)-1H-indol-3-yl]ethyl}sulfamoyl)dimethylamine] | < 500 nM
CN(C)S(=O)(=O)NCCn1cc(CCC(F)(F)F)c2cc(Br)ccc21 [Example 172, N-{2-[5-bromo-3-(3,3,3-trifluoropropyl)-1H-indol-1-yl]ethyl}-N,N-dimethylsulfuric diamide] | 500 to 3000 nM
CC(C)Cc1cn(CCS(=O)(=O)C(C)C)c2ccc(Br)cc12 [Example 173, 5-bromo-3-isobutyl-1-(2-(isopropylsulfonyl)ethyl)-1H-indole] | 500 to 3000 nM
CC(C)S(=O)(=O)CCn1cc(CC(C)(C)C)c2cc(Br)ccc21 [Example 175, 5-bromo-1-(2-(isopropylsulfonyl)ethyl)-3-neopentyl-1H-indole] | > 3000 nM
CC(C)Cn1cc(CCNS(=O)(=O)N(C)C)c2cc(F)c(-c3ccncc3)cc21 [Example 176, ({2-[5-fluoro-1-(2-methylpropyl)-6-(pyridin-4-yl)-1H-indol-3-yl]ethyl}sulfamoyl)dimethylamine] | < 500 nM
CC(C)Cn1cc(C2(CNS(=O)(=O)N(C)C)CC2)c2ccc(-c3ccncc3)cc21 [Example 178, dimethyl[({1-[1-(2-methylpropyl)-6-(pyridin-4-yl)-1H-indol-3-yl]cyclopropyl}methyl)sulfamoyl]amine] | < 500 nM
CN(C)S(=O)(=O)NCCc1cn(CCC(F)(F)F)c2cc(-c3ccncc3)ccc12 [Example 179, dimethyl({2-[6-(pyridin-4-yl)-1-(3,3,3-trifluoropropyl)-1H-indol-3-yl]ethyl}sulfamoyl)amine] | < 500 nM
CC(C)C(=O)n1cc(CNS(=O)(=O)N(C)C)c2ccc(-c3ccncc3)cc21 [Example 182, 1-(3-{[(dimethylsulfamoyl)amino]methyl}-6-(pyridin-4-yl)-1H-indol-1-yl)-2-methylpropan-1-one] | 500 to 3000 nM
CCC(C)C(=O)n1cc(CNS(=O)(=O)N(C)C)c2ccc(-c3ccncc3)cc21 (stereo not drawn) [Example 188, 1-(3-{[(dimethylsulfamoyl)amino]methyl}-6-(pyridin-4-yl)-1H-indol-1-yl)-2-methylbutan-1-one] | < 500 nM
CN(C)S(=O)(=O)NCCn1cc(CC(C)(C)C)c2cc(-c3ccccc3Cl)ccc21 [Example 190, N-{2-[5-(2-chlorophenyl)-3-(2,2-dimethylpropyl)-1H-indol-1-yl]ethyl}-N,N-dimethyl-sulfuric diamide] | < 500 nM
CC(NS(=O)(=O)N(C)C)c1cn(C(=O)C(C)(C)C)c2cc(-c3ccncc3)ccc12 (stereo not drawn) [Example 197, 1-(3-{1-[(dimethylsulfamoyl)amino]ethyl}-6-(pyridin-4-yl)-1H-indol-1-yl)-2,2-dimethylpropan-1-one] | < 500 nM

Further lines, results first:

EC50 | SMILES
500 to 3000 nM | CN(C)S(=O)(=O)NCCc1cn(CCc2ccccc2)c2cc(-c3ccncc3)ccc12 [Example 154, N′-{2-[6-(pyridin-4-yl)-1-phenethyl-1H-indol-3-yl]ethyl}-N,N-dimethylsulfuric diamide]
500 to 3000 nM | CN(C)S(=O)(=O)NCCc1cn(CC(F)(F)F)c2cc(Br)ccc12 [Example 158, ({2-[6-bromo-1-(2,2,2-trifluoroethyl)-1H-indol-3-yl]ethyl}sulfamoyl)dimethylamine]
500 to 3000 nM | CC(c1ccccc1)n1cc(CCNS(=O)(=O)N(C)C)c2ccc(Br)cc21 (stereo not drawn) [Example 159, ({2-[6-bromo-1-(1-phenylethyl)-1H-indol-3-yl]ethyl}sulfamoyl)dimethylamine]
> 3000 nM | CN(C)CCn1cc(CCNS(=O)(=O)N(C)C)c2ccc(Br)cc21 [Example 160, [2-(6-bromo-3-{2-[(dimethylsulfamoyl)amino]ethyl}-1H-indol-1-yl)ethyl]dimethylamine]
500 to 3000 nM | CN(C)S(=O)(=O)NCCc1cn(Cc2ccncc2)c2cc(Br)ccc12 [Example 162, [(2-{6-bromo-1-[(pyridin-4-yl)methyl]-1H-indol-3-yl}ethyl)sulfamoyl]dimethylamine]
500 to 3000 nM | CN(C)S(=O)(=O)NCCc1cn(Cc2cccnc2)c2cc(Br)ccc12 [Example 163, [(2-{6-bromo-1-[(pyridin-3-yl)methyl]-1H-indol-3-yl}ethyl)sulfamoyl]dimethylamine]
> 3000 nM | COC(=O)Cn1cc(CCNS(=O)(=O)N(C)C)c2ccc(Br)cc21 [Example 164, methyl 2-(6-bromo-3-(2-((N,N-dimethylsulfamoyl)amino)ethyl)-1H-indol-1-yl)acetate]
500 to 3000 nM | CN(C)S(=O)(=O)NCCc1cn(CC(C)(C)C)c2cc(Br)ccc12 [Example 165, ({2-[6-bromo-1-(2,2-dimethylpropyl)-1H-indol-3-yl]ethyl}sulfamoyl)dimethylamine]
500 to 3000 nM | CNC(=O)Cn1cc(CCNS(=O)(=O)N(C)C)c2ccc(Br)cc21 [Example 166, 2-(6-bromo-3-(2-((N,N-dimethylsulfamoyl)amino)ethyl)-1H-indol-1-yl)-N-methylacetamide]
500 to 3000 nM | CN(C)C(=O)Cn1cc(CCNS(=O)(=O)N(C)C)c2ccc(Br)cc21 [Example 167, 2-(6-bromo-3-(2-((N,N-dimethylsulfamoyl)amino)ethyl)-1H-indol-1-yl)-N,N-dimethylacetamide]
500 to 3000 nM | Cc1cccc2c(CCNS(=O)(=O)N(C)C)cn(CC(C)C)c12 [Example 169, dimethyl({2-[7-methyl-1-(2-methylpropyl)-1H-indol-3-yl]ethyl}sulfamoyl)amine]
500 to 3000 nM | CC(C)S(=O)(=O)NCCn1cc(CC(C)(C)C)c2cc(Br)ccc21 [Example 171, N-(2-(5-bromo-3-neopentyl-1H-indol-1-yl)ethyl)propane-2-sulfonamide]
500 to 3000 nM | CC(C)Cc1cn(CCS(=O)(=O)C(C)(C)C)c2ccc(Br)cc12 [Example 174, 5-bromo-1-(2-(tert-butylsulfonyl)ethyl)-3-isobutyl-1H-indole]
500 to 3000 nM | CC(C)Cn1cc(C(C)(C)CNS(=O)(=O)N(C)C)c2ccc(-c3ccncc3)cc21 [Example 177, dimethyl({2-methyl-2-[1-(2-methylpropyl)-6-(pyridin-4-yl)-1H-indol-3-yl]propyl}sulfamoyl)amine]
500 to 3000 nM | CC(C)C(=O)n1cc(CNS(=O)(=O)N(C)C)c2ccc(-c3ccccc3Cl)cc21 [Example 183]
> 3000 nM | CC(C)C(=O)n1cc(CNS(=O)(=O)N(C)C)c2ccc(-c3ccnn3C)cc21 [Example 184, 1-(3-{[(dimethylsulfamoyl)amino]methyl}-6-(1-methyl-1H-pyrazol-5-yl)-1H-indol-1-yl)-2-methylpropan-1-one]
< 500 nM | CC(C)C(=O)n1cc(CNS(=O)(=O)N(C)C)c2ccc(-c3ccccc3C(F)(F)F)cc21 [Example 185, 1-(3-{[(dimethylsulfamoyl)amino]methyl}-6-[2-(trifluoromethyl)phenyl]-1H-indol-1-yl)-2-methylpropan-1-one]
500 to 3000 nM | CN(C)S(=O)(=O)NCc1cn(C(=O)C(C)(C)C)c2cc(-c3ccncc3)ccc12 [Example 186, 1-(3-{[(dimethylsulfamoyl)amino]methyl}-6-(pyridin-4-yl)-1H-indol-1-yl)-2,2-dimethylpropan-1-one]
> 3000 nM | CCC(=O)n1cc(CNS(=O)(=O)N(C)C)c2ccc(-c3ccncc3)cc21 [Example 187, 1-(3-{[(dimethylsulfamoyl)amino]methyl}-6-(pyridin-4-yl)-1H-indol-1-yl)propan-1-one]
< 500 nM | CN(C)S(=O)(=O)NCCn1cc(CC(C)(C)C)c2cc(-c3ccncc3)ccc21 [Example 189, N-{2-[5-(pyridin-4-yl)-3-(2,2-dimethylpropyl)-1H-indol-1-yl]ethyl}-N,N-dimethylsulfuric diamide]
> 3000 nM | CN(C)C(=O)n1cc(CCNS(=O)(=O)N(C)C)c2ccc(-c3ccncc3)cc21 [Example 194, 3-(2-((N,N-dimethylsulfamoyl)amino)ethyl)-N,N-dimethyl-6-(pyridin-4-yl)-1H-indole-1-carboxamide]
< 500 nM | CC(C)C(=O)n1cc(C(C)NS(=O)(=O)N(C)C)c2ccc(-c3ccccc3Cl)cc21 (stereo not drawn) [Example 196, 1-[6-(2-chlorophenyl)-3-{1-[(dimethylsulfamoyl)amino]ethyl}-1H-indol-1-yl]-2-methylpropan-1-one]
